Data taken from patent US20250059174A1, “Pharmaceutical Compounds and Compositions as C-Kit Kinase Inhibitors” (Enanta Pharmaceuticals, Inc., priority 2023, published 2025).

How the values were obtained:
[1] = biological target: Recombinant human c-KIT kinase (Homo sapiens (Human), UniProt P10721); experiment: c-KIT kinase chemiluminescence assay (ADP-Glo); assay type: biochemical; conditions: ATP 50 μM
Procedure: The c-KIT Kinase Enzyme System (V4498) and ADP-Glo™ Kinase Assay kit (V6930) were purchased from Promega (Madison, WI). DMSO (D2650) was purchased from Sigma-Aldrich (Burlington, MA).
Kinase Reaction: The kinase assay was based on the recommended protocol by c-KIT Kinase Enzyme System from Promega. Recombinant human c-KIT kinase in 3 μL of assay buffer (40 mM Tris pH 7.5, 20 mM MgCl2, 0.1 mg/mL BSA and 50 μM DTT) was added to the test or high control wells and 3 μL of assay buffer was added to the low control wells. The microplate was centrifuged at 800 rotations per minute (rpm) for 60 s and incubated at room temperature (RT) for 30 min. Next, 2 μL of buffered ATP and polyEY substrate solution was added to all wells. The microplate was centrifuged at 800 rpm for 60 s and incubated at RT for 2 h.
ADP detection with ADP-Glo™ Kinase Assay: After the kinase reaction incubation, 5 μL of ADP-Glo™ reagent was added to all wells. The microplate was centrifuged at 800 rpm for 60 s and incubated at RT for 40 min. Ten microliter (10 μL) of Kinase Detection Reagent (Luciferin-Luciferase system) was then added to all wells. The microplate was centrifuged at 800 rpm for 60 s and incubated at RT for 60 min. Kinase activity was measured as increase in luminescence at RT in an Envision plate reader equipped with 560 nm filters and operating in endpoint mode. Data Analysis: Endpoint chemiluminescence from high and low control wells were used to calculate normalized c-KIT activity at various concentrations of test compounds. The normalized activities were fitted to inhibitor-versus-normalized response fit in GraphPad Prism 7 to determine half-maximal inhibitory concentration (IC50) and hill coefficient values (H).
Where I is the inhibitor concentration and H is the Hill coefficient.

M-07e cells = experiment: M-07e cellular assay (SCF-mediated cell proliferation); assay type: cell-based; conditions: Homo sapiens, 72 hours, CellTiter Glo
Procedure: M-07e cells (Creative Bioarray, CSC-C0249) which endogenously express human c-KIT were used to evaluate the effect of compounds on stem cell factor (SCF)-mediated cell proliferation. M-07e cells were cultured in growth media (RPMI+10% FBS+1% penicillin/streptomycin+10 ng/mL GM-CSF) at 5E5-1.5E6 cells/mL, replenishing media every 3-4 days. 1.5E4 cells were seeded per well in 384 well tissue culture treated plates in 20 μL assay media (RPMI+[…]+1% penicillin/streptomycin) without growth factor stimulation and incubated at 37° C. in a CO2 humidity-controlled incubator. Twenty-four hours later, three-fold serially diluted test compounds in media containing SCF (at the previously determined EC90) were added to the plated M-07e cells and incubated for an additional 72 hours. Cell viability was determined by adding 25 μL CellTiter Glo (Promega) to the cells and the luminescence was measured using a Perkin Elmer Envision plate reader. The EC50 was determined using GraphPad Prism. Percent cell growth was determined after normalizing the curve to the mean RLU high control (no compound control wells) at 100% and the mean RLU low control (no SCF control wells) at 0%.

Recombinant human c-KIT kinase, sequence (P10721 26-976): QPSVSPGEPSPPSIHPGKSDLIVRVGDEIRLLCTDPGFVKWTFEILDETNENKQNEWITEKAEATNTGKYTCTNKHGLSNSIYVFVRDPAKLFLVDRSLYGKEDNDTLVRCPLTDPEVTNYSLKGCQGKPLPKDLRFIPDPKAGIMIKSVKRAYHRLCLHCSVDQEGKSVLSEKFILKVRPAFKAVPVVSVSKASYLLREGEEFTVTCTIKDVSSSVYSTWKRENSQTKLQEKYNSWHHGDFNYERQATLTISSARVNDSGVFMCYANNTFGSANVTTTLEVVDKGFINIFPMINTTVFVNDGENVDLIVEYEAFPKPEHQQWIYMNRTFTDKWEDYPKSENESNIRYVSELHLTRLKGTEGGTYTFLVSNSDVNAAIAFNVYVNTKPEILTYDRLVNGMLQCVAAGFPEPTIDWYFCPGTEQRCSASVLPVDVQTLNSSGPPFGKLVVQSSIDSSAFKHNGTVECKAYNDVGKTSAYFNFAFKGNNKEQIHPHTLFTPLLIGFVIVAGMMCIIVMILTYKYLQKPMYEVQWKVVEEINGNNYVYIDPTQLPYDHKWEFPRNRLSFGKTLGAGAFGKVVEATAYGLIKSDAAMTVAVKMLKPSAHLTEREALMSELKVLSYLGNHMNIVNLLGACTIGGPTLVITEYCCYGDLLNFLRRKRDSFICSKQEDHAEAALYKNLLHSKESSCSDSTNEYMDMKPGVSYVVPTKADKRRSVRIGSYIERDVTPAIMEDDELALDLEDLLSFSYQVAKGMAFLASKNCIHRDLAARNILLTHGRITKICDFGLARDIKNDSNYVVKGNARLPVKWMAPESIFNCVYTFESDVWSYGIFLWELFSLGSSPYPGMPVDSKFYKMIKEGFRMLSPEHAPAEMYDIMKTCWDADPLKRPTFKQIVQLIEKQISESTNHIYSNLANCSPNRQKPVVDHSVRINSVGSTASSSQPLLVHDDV

## Cc1ccc(-c2noc([C@H]3C[C@@H]3F)n2)cc1NC(=O)c1cnn(-c2cccc(N)c2)c1 [Example 74]
[1]
  IC50: 100 to 1000 nM
M-07e cells
  EC50: > 1000 nM

## Cc1ccc(-c2noc([C@H]3C[C@@H]3F)n2)cc1NC(=O)c1cnc(-c2ccccc2)o1 [Example 85]
[1]
  IC50: 100 to 1000 nM
M-07e cells
  EC50: 100 to 1000 nM

## Cc1ccc(-c2noc([C@H]3C[C@@H]3F)n2)cc1NC(=O)c1cnn2ccc(NC(=O)OC(C)(C)C)cc12 [Example 90]
[1]
  IC50: 100 to 1000 nM
M-07e cells
  EC50: 100 to 1000 nM

## Cc1ccc(-c2noc([C@H]3C[C@@H]3F)n2)cc1NC(=O)c1cnn2ccc(N)cc12 [Example 92]
[1]
  IC50: < 100 nM
M-07e cells
  EC50: < 100 nM

## Cc1ccc(-c2noc([C@H]3C[C@@H]3F)n2)cc1NC(=O)c1cnn2ccc(NC(=O)c3ccccc3)cc12 [Example 93]
[1]
  IC50: 100 to 1000 nM
M-07e cells
  EC50: 100 to 1000 nM

## Cc1ccc(-c2noc([C@H]3C[C@@H]3F)n2)cc1NC(=O)c1cnn2ccc(NC(=O)OC3CC3)cc12 [Example 94]
[1]
  IC50: 100 to 1000 nM
M-07e cells
  EC50: 100 to 1000 nM

## Cc1ccc(-c2noc([C@H]3C[C@@H]3F)n2)cc1NC(=O)c1cnn2ccc(NC(=O)OCc3ccccc3)cc12 [Example 95]
[1]
  IC50: 100 to 1000 nM
M-07e cells
  EC50: 100 to 1000 nM

## Cc1ccc(-c2noc([C@H]3C[C@@H]3F)n2)cc1NC(=O)c1cnn2ccc(NC(=O)NC3CC3)cc12 [Example 96]
[1]
  IC50: 100 to 1000 nM
M-07e cells
  EC50: 100 to 1000 nM

## Cc1ccc(-c2noc([C@H]3C[C@@H]3F)n2)cc1NC(=O)c1cn2ncsc2n1 [Example 97]
[1]
  IC50: > 1000 nM
M-07e cells
  EC50: > 1000 nM

## Cc1nc(Nc2ncc(C(=O)Nc3cc(-c4noc([C@H]5C[C@@H]5F)n4)ccc3C)s2)cc(N2CC3(COC3)C2)n1 [Example 98-1]
[1]
  IC50: < 100 nM
M-07e cells
  EC50: < 100 nM

## CC(=O)NC1CN(c2ncc(C(=O)Nc3cc(-c4noc([C@H]5C[C@@H]5F)n4)ccc3C)s2)C1 [Example 98-2]
[1]
  IC50: > 1000 nM
M-07e cells
  EC50: > 1000 nM

## Cc1ccc(-c2noc([C@H]3C[C@@H]3F)n2)cc1NC(=O)c1cnc(N2CC(C(=O)OC(C)(C)C)C2)s1 [Example 98-3]
[1]
  IC50: > 1000 nM
M-07e cells
  EC50: > 1000 nM

## Cc1ccc(-c2noc([C@H]3C[C@@H]3F)n2)cc1NC(=O)c1cnc(N2CC(C(=O)NC3CC3)C2)s1 [Example 98-5]
[1]
  IC50: > 1000 nM
M-07e cells
  EC50: > 1000 nM

## Cc1ccc(-c2noc([C@H]3C[C@@H]3F)n2)cc1NC(=O)c1ccc2c(c1)CC(=O)N2 [Example 98-6]
[1]
  IC50: > 1000 nM
M-07e cells
  EC50: > 1000 nM

## Cc1ccc(-c2noc([C@H]3C[C@@H]3F)n2)cc1NC(=O)c1ccc2[nH]c(=O)[nH]c2c1 [Example 98-7]
[1]
  IC50: > 1000 nM
M-07e cells
  EC50: > 1000 nM

## Cc1ccc(-c2noc([C@H]3C[C@@H]3F)n2)cc1NC(=O)c1cnc(N2CCC3(CCC(=O)N3)CC2)s1 [Example 98-8]
[1]
  IC50: > 1000 nM
M-07e cells
  EC50: > 1000 nM

## Cc1ccc(-c2noc([C@H]3C[C@@H]3F)n2)cc1NC(=O)c1cnn(-c2ccccc2)c1C [Example 98]
[1]
  IC50: > 1000 nM
M-07e cells
  EC50: > 1000 nM

## Cc1ccc(-c2noc([C@H]3C[C@@H]3F)n2)cc1NC(=O)c1cnc2n1CCc1ccccc1-2 [Example 100]
[1]
  IC50: < 100 nM
M-07e cells
  EC50: 100 to 1000 nM

## Cc1ccc(-c2noc([C@H]3C[C@@H]3F)n2)cc1NC(=O)c1cnc2n1C(C)c1ccccc1-2 (some centres unmarked) [Example 102]
[1]
  IC50: < 100 nM
M-07e cells
  EC50: 100 to 1000 nM

## C=CCC1c2ccccc2-c2ncc(C(=O)Nc3cc(-c4noc([C@H]5C[C@@H]5F)n4)ccc3C)n21 (some centres unmarked) [Example 103]
[1]
  IC50: 100 to 1000 nM
M-07e cells
  EC50: 100 to 1000 nM

## Cc1ccc(-c2noc([C@H]3C[C@@H]3F)n2)cc1NC(=O)c1cnc2n1C(Cc1ccccc1)c1ccccc1-2 (some centres unmarked) [Example 104]
[1]
  IC50: > 1000 nM
M-07e cells
  EC50: > 1000 nM

## Cc1ccc(-c2noc([C@H]3C[C@@H]3F)n2)cc1NC(=O)c1cnc2n1C(C)(C)c1ccccc1-2 [Example 105]
[1]
  IC50: 100 to 1000 nM
M-07e cells
  EC50: 100 to 1000 nM

## C#Cc1ccn2ncc(C(=O)Nc3cc(-c4noc([C@H]5C[C@@H]5F)n4)ccc3C)c2c1 [Example 108]
[1]
  IC50: < 100 nM
M-07e cells
  EC50: < 100 nM

## Cc1ccc(-c2noc([C@H]3C[C@@H]3F)n2)cc1NC(=O)c1cnn2cc(-c3cn(CCO)nn3)ccc12 [Example 109]
[1]
  IC50: < 100 nM
M-07e cells
  EC50: < 100 nM

## Cc1ccc(-c2noc([C@H]3C[C@@H]3F)n2)cc1NC(=O)c1cnn2ccc(-c3cn(CCO)nn3)cc12 [Example 110]
[1]
  IC50: 100 to 1000 nM
M-07e cells
  EC50: < 100 nM

## Cc1ccc(-c2noc([C@H]3C[C@@H]3F)n2)cc1NC(=O)c1cnn2ccc(-c3cn(C(F)F)nn3)cc12 [Example 111]
[1]
  IC50: 100 to 1000 nM
M-07e cells
  EC50: < 100 nM

## Cc1ccc(-c2noc([C@H]3C[C@@H]3F)n2)cc1NC(=O)c1cnn2cc(-c3cn(CC(F)(F)F)nn3)ccc12 [Example 112]
[1]
  IC50: < 100 nM
M-07e cells
  EC50: < 100 nM

## Cc1ccc(-c2noc([C@H]3C[C@@H]3F)n2)cc1NC(=O)c1cnn2cc(-c3cn(C(F)(F)F)nn3)ccc12 [Example 113]
[1]
  IC50: < 100 nM
M-07e cells
  EC50: < 100 nM

## Cc1ccc(-c2noc([C@H]3C[C@@H]3F)n2)cc1NC(=O)c1cnn2cc(-c3cn(C4CC4)nn3)ccc12 [Example 114]
[1]
  IC50: < 100 nM
M-07e cells
  EC50: < 100 nM

## Cc1ccc(-c2noc([C@H]3C[C@@H]3F)n2)cc1NC(=O)c1cnn2cc(-c3cn(C4CC(F)(F)C4)nn3)ccc12 [Example 115]
[1]
  IC50: < 100 nM
M-07e cells
  EC50: < 100 nM

## COCCn1cc(-c2ccc3c(C(=O)Nc4cc(-c5noc([C@H]6C[C@@H]6F)n5)ccc4C)cnn3c2)nn1 [Example 116]
[1]
  IC50: < 100 nM
M-07e cells
  EC50: < 100 nM

## Cc1ccc(-c2noc([C@H]3C[C@@H]3F)n2)cc1NC(=O)c1cnn2cc(-c3cn(C[C@H](C)O)nn3)ccc12 [Example 117]
[1]
  IC50: < 100 nM
M-07e cells
  EC50: < 100 nM

## Cc1ccc(-c2noc([C@H]3C[C@@H]3F)n2)cc1NC(=O)c1cnn2cc(-c3cn(CC(C)(C)O)nn3)ccc12 [Example 118]
[1]
  IC50: < 100 nM
M-07e cells
  EC50: < 100 nM

## Cc1ccc(-c2noc([C@H]3C[C@@H]3F)n2)cc1NC(=O)c1cnn2cc(-c3cn(CC4(C)COC4)nn3)ccc12 [Example 119]
[1]
  IC50: < 100 nM
M-07e cells
  EC50: < 100 nM

## Cc1ccc(-c2noc([C@H]3C[C@@H]3F)n2)cc1NC(=O)c1cnn2cc(-c3cnnn3CCO)ccc12 [Example 120]
[1]
  IC50: 100 to 1000 nM
M-07e cells
  EC50: 100 to 1000 nM

## Cc1ccc(-c2noc([C@H]3C[C@@H]3F)n2)cc1NC(=O)c1cnn2cc(-c3cnnn3CC(F)(F)F)ccc12 [Example 121]
[1]
  IC50: > 1000 nM
M-07e cells
  EC50: > 1000 nM

## Cc1ccc(-c2noc([C@H]3C[C@@H]3F)n2)cc1NC(=O)c1cnn2ccc(-c3cn(CC(C)(C)O)nn3)cc12 [Example 122]
[1]
  IC50: < 100 nM
M-07e cells
  EC50: < 100 nM

## Cc1ccc(-c2noc([C@H]3C[C@@H]3F)n2)cc1NC(=O)c1cnn2cc(-c3cn(C45CC(C4)C5)nn3)ccc12 [Example 123]
[1]
  IC50: 100 to 1000 nM
M-07e cells
  EC50: < 100 nM

## Cc1ccc(-c2noc([C@H]3C[C@@H]3F)n2)cc1NC(=O)c1cnn2ccc(-c3cn(C45CC(F)(C4)C5)nn3)cc12 [Example 124]
[1]
  IC50: < 100 nM
M-07e cells
  EC50: < 100 nM

## Cc1ccc(-c2noc([C@H]3C[C@@H]3F)n2)cc1NC(=O)c1cnn2cc(-c3cn(C45CC(F)(C4)C5)nn3)ccc12 [Example 125]
[1]
  IC50: 100 to 1000 nM
M-07e cells
  EC50: < 100 nM

## Cc1ccc(-c2noc([C@H]3C[C@@H]3F)n2)cc1NC(=O)c1cnn2ccc(-c3cn(C45CC(C(F)(F)F)(C4)C5)nn3)cc12 [Example 126]
[1]
  IC50: < 100 nM
M-07e cells
  EC50: < 100 nM

## Cc1ccc(-c2noc([C@H]3C[C@@H]3F)n2)cc1NC(=O)c1cnn2ccc(C#N)cc12 [Example 127]
[1]
  IC50: 100 to 1000 nM
M-07e cells
  EC50: 100 to 1000 nM

## Cc1ccc(-c2noc([C@H]3C[C@@H]3F)n2)cc1NC(=O)c1cnn2cc(C#N)ccc12 [Example 128]
[1]
  IC50: > 1000 nM
M-07e cells
  EC50: 100 to 1000 nM

## Cc1ccc(-c2noc([C@H]3C[C@@H]3F)n2)cc1NC(=O)c1cnn2ccc(-c3nn[nH]n3)cc12 [Example 129]
[1]
  IC50: 100 to 1000 nM
M-07e cells
  EC50: > 1000 nM

## Cc1ccc(-c2noc([C@H]3C[C@@H]3F)n2)cc1NC(=O)c1cnn2cc(-c3nn[nH]n3)ccc12 [Example 130]
[1]
  IC50: 100 to 1000 nM
M-07e cells
  EC50: > 1000 nM

## Cc1ccc(-c2noc([C@H]3C[C@@H]3F)n2)cc1NC(=O)c1cnn2ccc(-c3nnn(C)n3)cc12 [Example 131]
[1]
  IC50: 100 to 1000 nM
M-07e cells
  EC50: < 100 nM
